Each structure is given as a SMILES string. A value given as a limit tells only on which side of the number the result lay.

One experiment has as its target monoamine oxidase (MAO). Kind of experiment: Monoamine oxidase (MAO-Glo) activity assay. Format: biochemical. The conditions noted are these: four parameter fit; for IC50: 60-min reaction, read-out: MAO Dose Response IC50. The protocol:
The Monoamine oxidase (MAO) activity measurements were performed using a MAO-Glo assay kit (Promega, Madison, WI), in a 384-well plate (Proxiplate 384 Plus, Perkin Elmer, Waltham, MA) with the miniaturization of final assay volume to 20 µL, as per the manufacturer’s instructions. In brief, MAO reactions were terminated after a 60-min enzymatic reaction, by the addition of reconstituted Luciferin Detection Reagent. Following a 20-min incubation with the detection reagent, the luminescence was measured using a multi-label plate reader (Envision, Perkin Elmer). IC50 values were estimated by fitting percentage inhibition vs. compound concentration in a variable slope (four parameter) fit.

In experiment [1] the test system is total tau (TAU5) in A152T neurons. Kind of experiment: Western blot of total tau in A152T neurons. Format: cell-based, human. Conditions: pre-treatment 6 hr then 1 μM QC-01–175 for 18 hr, western blot. The source says: (§1) Cells from individuals carrying the tau risk variant A152T (c.1407G > A; NCBI RefSeq NM_001123066, rs143624519), the autosomal dominant mutation P301L (c.C1907T; NCBI NM_001123066, rs63751273), or age-matched non-mutant WT tau were employed in this study (Figure 2—source data 1). Dermal fibroblasts from the tau-P301L carrier and the healthy individual were generated from a skin biopsy from subjects within the MGH Frontotemporal Disorders Unit as part of the MGH Neurodegeneration Repository. Approval for human subjects’ work was obtained under a Partners/MGH-approved IRB Protocol (#2010P001611/MGH). Fibroblasts were reprogrammed into iPSCs, which were subsequently converted into cortical-enriched neural progenitor cells (NPCs) and differentiated into neuronal cells as previously described ([Almeida et al., 2012]; [Seo et al., 2017]; [Silva et al., 2016]; [Sheridan et al., 2011]) (Silva MC, Manuscript in preparation, 2019). Briefly, cells were cultured in 6-well (Fisher Scientific Corning, Pittsburgh, PA) or 96-well (Fisher Scientific Corning) plates coated with poly-ornithine (20 μg/mL in water, Sigma, St. Louis, MO) and laminin (5 μg/mL in PBS, Sigma) (POL-coated), in DMEM/F12-B27 media [70% DMEM (Gibco, Carlsbad, CA), 30% Ham’s-F12 (Fisher Scientific Corning), 2% B27 (Gibco), 1% penicillin-streptomycin (Gibco)]. Media was supplemented with EGF (20 ng/mL, Sigma), FGF (20 ng/mL, Stemgent, Cambridge, MA) and heparin (5 μg/mL, Sigma), to promote NPC proliferation and expansion. The growth factors were withdrawn to promote neural differentiation for 6 to 8 weeks, with half media change two times per week. Cell lines’ identity was authenticated by SANGER sequencing, karyotyping and ACGH analysis at different stages of culture maintenance from iPSC to NPC. All working cell lines tested negative for mycoplasma contamination.
(§2) Compound treatment in six-well plates was performed in 2 mL media volume by removing 1 mL of conditioned media from the culture and adding 1 mL of new media pre-mixed with the compound at the appropriate 2X concentration, followed by incubation at 37°C for the designated period of time. Compound treatment in 96-well plates was performed in 100 μL media volume by adding compound directly to each well, followed by incubation at 37°C. When testing the effect of drug pre-treatment, the first compound was added as described above for the period of time needed, and then QC-01–175 was added directly onto the media without media exchange.
(§3) Neurons differentiated in six-well plates for 6 weeks were washed and collected in PBS, lysed in RIPA buffer (Boston Bio-Products, Boston, MA) supplemented with 2% SDS (Sigma), protease inhibitors cocktail (Roche Complete Mini tablets, Mannheim, Germany), and phosphatase inhibitors cocktail (Sigma), followed by water sonication (Bransonic Ultrasonic Baths, Thomas Scientific, Danbury, CT) and 20,000 g centrifugation for 20 min. Supernatants were transferred to new tubes and total protein concentration was quantified with the Pierce BCA Protein Assay Kit (ThermoFisher Scientific, Carlsbad, CA). Human recombinant tau protein ladder was purchased from Sigma. Electrophoresis were performed with the Novex NuPAGE SDS-PAGE Gel System (Invitrogen, Carlsbad, CA), by running 10 μg of total protein (pre-boiled in SDS-DTT loading buffer, NEB, Ipswich, MA) on pre-cast SDS-PAGE. Gels were transferred onto PVDF membranes (EMD Millipore) using standard procedures. Membranes were blocked in 5% BSA (Sigma) in Tris-buffered saline with Tween-20 (TBST/Biorad, Hercules, CA) for 2 hr, incubated overnight with primary antibody (see antibody section) at 4°C, followed by corresponding HRP-linked secondary antibody incubation (Cell Signaling Technology, Danvers, MA). […]
(Immunoblotting shows a protein as a band on a membrane.)

For experiment [2], the target named is T1, recombinant human tau Tau-441(WT) (Homo sapiens, UniProt P10636).
T1 construct: biotin (chemical label, NHS-PEG4); purchased SignalChem T08-54BN; host or cells: E. coli
T1 sequence (P10636 1-441 isoform P10636-8): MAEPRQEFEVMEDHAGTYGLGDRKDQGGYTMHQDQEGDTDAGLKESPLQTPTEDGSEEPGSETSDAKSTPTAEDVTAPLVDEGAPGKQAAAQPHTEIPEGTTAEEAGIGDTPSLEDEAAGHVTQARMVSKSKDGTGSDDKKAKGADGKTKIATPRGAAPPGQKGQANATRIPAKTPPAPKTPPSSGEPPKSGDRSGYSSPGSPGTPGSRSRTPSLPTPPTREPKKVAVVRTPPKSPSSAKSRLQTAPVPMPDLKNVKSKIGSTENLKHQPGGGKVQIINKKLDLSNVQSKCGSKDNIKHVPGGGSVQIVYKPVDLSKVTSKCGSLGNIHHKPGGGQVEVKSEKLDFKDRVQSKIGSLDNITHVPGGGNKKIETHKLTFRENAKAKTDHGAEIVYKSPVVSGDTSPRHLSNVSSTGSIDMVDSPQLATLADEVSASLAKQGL
Kind of experiment: Bio-layer interferometry (BLI) biosensor assay, tau WT. Format: binding. The conditions noted are these: BLI steady-state analysis, immobilized biotinylated tau; Figure 1—figure supplement 1B. The protocol:
(§4) BLI was performed in the Octet Red384 instrument (ForteBio, Fremont CA, USA) with 1X PBS and 0.01% Brij-35 as the assay buffer. […] The biotinylated protein samples for BLI were purified in 1X phosphate buffered saline (PBS). Streptavidin (SA) sensors were used to measure the biophysical interaction between the small molecules and biotinylated tau. Prior to the initiation of BLI, the SA sensors were soaked by dipping in 200 μL of assay buffer in a 96-well Greiner Bio-One Black flat bottom plate (Greiner, Monroe NC, USA Cat.655209). The assay was performed in 80 μL volume in Greiner Bio-One 384-well black flat bottom PP plates (Greiner, Cat.781209) with an initial baseline step, followed by loading of 250 nM biotinylated tau protein. The small molecules samples and recombinant proteins were arranged in the 384-well plate according to a plate map recommended for the eight-channel mode kinetic analysis, where the sensors move from low to high concentration of small molecule samples. Subsequent steps included a second baseline (120 s), followed by association (240 s) and dissociation (240 s) cycles. […] When Req option is selected, Fortebio’s software calculates affinity constants based on the Req values determined from the curve fits. […]
In general terms: In BLI a coated tip is dipped into the sample, and binding shifts an interference pattern.

For experiment [3], the target named is T2, recombinant human tau Tau-441(A152T) (Homo sapiens, UniProt P10636, A469T).
T2 construct: biotin (chemical label, NHS-PEG4); purchased SignalChem T08-56VN; host or cells: E. coli
T2 sequence (P10636 1-441 isoform P10636-8 A152T): as the sequence (P10636 1-441 isoform P10636-8) above, with A152T counted along it
Kind of experiment: Bio-layer interferometry (BLI) biosensor assay, tau A152T. Format: binding. The conditions noted are these: BLI steady-state analysis, immobilized biotinylated tau; Figure 1—figure supplement 1B; read-out: KD, Tau A152T. The protocol: BLI was performed in the Octet Red384 instrument (ForteBio, Fremont CA, USA) with 1X PBS and 0.01% Brij-35 as the assay buffer. […] The biotinylated protein samples for BLI were purified in 1X phosphate buffered saline (PBS). Streptavidin (SA) sensors were used to measure the biophysical interaction between the small molecules and biotinylated tau. Prior to the initiation of BLI, the SA sensors were soaked by dipping in 200 μL of assay buffer in a 96-well Greiner Bio-One Black flat bottom plate (Greiner, Monroe NC, USA Cat.655209). The assay was performed in 80 μL volume in Greiner Bio-One 384-well black flat bottom PP plates (Greiner, Cat.781209) with an initial baseline step, followed by loading of 250 nM biotinylated tau protein. The small molecules samples and recombinant proteins were arranged in the 384-well plate according to a plate map recommended for the eight-channel mode kinetic analysis, where the sensors move from low to high concentration of small molecule samples. Subsequent steps included a second baseline (120 s), followed by association (240 s) and dissociation (240 s) cycles. […] Data analysis was performed using Data Acquisition HT 11.0 software following reference subtraction (an average of two sensors with DMSO) using a 1:1 binding model and an individual fit of each replicate. The equilibrium dissociation constant (KD) was estimated using data at equilibrium from each available small molecule concentration with steady-state analysis. The instrument manufacturer (Fortebio, article #137) recommends the steady state option for analyzing interactions that are either low affinity or very fast on-and-off affinity rates. […] When Req option is selected, Fortebio’s software calculates affinity constants based on the Req values determined from the curve fits. In the steady-state analysis, Req is plotted against the small molecule concentration to infer the Rmax. […] As per the instrument manufacturer’s instructions, if all curves have reached equilibrium, these two sets of values correspond to ‘Response,’ and Req values should match. […]

For experiment [4], the target named is T3, recombinant human tau Tau-441(P301L) (Homo sapiens, UniProt P10636, P618L).
T3 construct: biotin (chemical label, NHS-PEG4); purchased SignalChem T08-56FN; host or cells: E. coli
T3 sequence (P10636 1-441 isoform P10636-8 P301L): as the sequence (P10636 1-441 isoform P10636-8) above, with P301L counted along it
Briefly: Bio-layer interferometry (BLI) biosensor assay, tau P301L. Format: binding. The conditions noted are these: BLI steady-state analysis, immobilized biotinylated tau; Figure 1—figure supplement 1B. The procedure:
as §4

Experiment [5] has as its system P-tau S396 in A152T neurons. Briefly: Western blot of P-tau S396 in A152T neurons. Conditions: 24 hr, across biological replicates. Format: cell-based, human.
Excerpt: as §1, §2, §3

Usually IC50 stands for the midpoint of a concentration-inhibition curve. For `N[C@@H]1C[C@H]1c1ccccc1` (racemic) [Parnate, Tranylcypromine], on monoamine oxidase (MAO), the IC50 was determined as 0.057 µM, the “MAO Dose Response Hill Slope” value amounted to 1.504 and the “MAO Dose Response Log IC50” value is given as -1.240.

As for `NS(=O)(=O)OC[C@@H]1C[C@@H](n2ccc3c(N[C@H]4CCc5ccccc54)ncnc32)C[C@@H]1O` [MLN4924, reference compound], in experiment [1], the “effect of 6 hr pre-treatment on QC-01–175-mediated tau degradation (total tau and P-tau S396)” value (“effect … (total tau and P-tau S396)” below) is “caused a concentration-dependent rescue of the effect of QC-01–175”.

A word on the Kd: it is the equilibrium constant for the complex coming apart. For `COc1cc(OCc2ccccn2)ccc1/C=C/c1cc(/C=C/c2ccc3cc[nH]c3c2)n[nH]1` [PE859, reference compound], the Kd in experiment [2] was 22 ± 2.78 µM; in experiment [3], 22.1 ± 3.26 µM; in experiment [4] it was 8.8 ± 1.11 µM.

With `Nc1cccc2c1C(=O)N(C1CCC(=O)NC1=O)C2=O` (centres unmarked) [Pomalidomide], at monoamine oxidase (MAO), the IC50 is over 50 µM and the “MAO Dose Response Hill Slope” value is on record as 0.108.

For the compound `CO/C1=C\C(C)=C\[C@@H](C)[C@@H](O)[C@@H](C)C/C(C)=C/C=C/[C@H](OC)[C@@H]([C@@H](C)[C@@H](O)[C@H](C)[C@@]2(O)C[C@@H](O)[C@H](C)[C@@H](C(C)C)O2)OC1=O` [bafilomycin A1, Bafilomycin A1, reference compound], the “effect … (total tau and P-tau S396)” value in experiment [1] was “did not reverse the degrader effect and further promoted tau clearance”.

As for `CC(C)C[C@H](NC(=O)[C@H](CCc1ccccc1)NC(=O)CN1CCOCC1)C(=O)N[C@@H](Cc1ccccc1)C(=O)N[C@@H](CC(C)C)C(=O)[C@@]1(C)CO1` [carfilzomib, Carfilzomib, reference compound], in experiment [1], the “effect … (total tau and P-tau S396)” value is recorded as “caused a concentration-dependent rescue of the effect of QC-01–175”.

Take `Nc1cccc2c1CN(C1CCC(=O)NC1=O)C2=O` (centres unmarked) [lenalidomide, Lenalidomide, reference compound]: in experiment [1], the “effect … (total tau and P-tau S396)” value is “reversed QC-01–175-mediated tau degradation in a concentration-dependent manner”. The entries for the “up-regulation of P-tau S396” value in experiment [5] (1 μM) and in experiment [5] (10 μM) were ~ 30% and about 90%, respectively.

Values taken from PMC6450673, “Targeted degradation of aberrant tau in frontotemporal dementia patient-derived neuronal cell models” (eLife, 2019).
